In the first experiment the test system is Mycosphaerella graminicola; Anamorph: Septoria tritici; Bayer Code SEPTTR (standard laboratory isolate, SI SEPTTR). Nature of the experiment: Type A (high volume) assay, leaf blotch of wheat, standard laboratory SEPTTR isolate (SI SEPTTR). The format is in vivo, Mycosphaerella graminicola on wheat plants (variety Yuma). The conditions noted are these: Zymoseptoria tritici, 24 h, standard laboratory isolate; high volume; 50 ppm; 1 Day Protectant; wheat (Yuma); read-out: Disease Control, SI SEPTTR Type A Assay (50 ppm) 1 DP. The procedure, abridged:
(§1)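 Wheat seedlings (Yuma, first leaf emerged) sprayed with acetone/Triton X-100 solutions (Type A) or 10% EC diluted in 0.1% Trycol at 200 L/ha (Type B), inoculated before or after spraying. Inoculated plants held 3 days at 20 °C, 100% RH, then greenhouse; % disease control from severity versus untreated plants.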
Take `CC(C)C(O)(c1cncnc1)c1ccc(Oc2ccc(Cl)cn2)cn1` (stereo not drawn) [Compound 13]: the pest or weed control at 50 ppm is 80 to 100%.
Regarding `CC(C)(C)C(O)(c1cncnc1)c1ccc(-c2ccc(OCC(F)(F)F)cc2)cn1` (stereo not drawn) [Compound 120], the pest or weed control at 50 ppm lay in the range of 80 to 100%.
Consider `OC(c1cccnc1)(c1ccc(-c2ccc(OC(F)(F)F)cc2)cn1)C1CC1` (stereo not drawn) [Compound 78], for which the pest or weed control at 50 ppm is 80 to 100%.
For the compound `CC(C)(C)C(O)(c1cncnc1)c1ccc(-c2ccccc2)cn1` (stereo not drawn) [Compound 114], the pest or weed control at 50 ppm was 60 to 79%.
For the compound `OC(c1cncnc1)(c1ccc(Oc2ccc(Cl)cn2)cn1)C1CC1` (stereo not drawn) [Compound 14], the pest or weed control at 50 ppm was in the range of 80 to 100%.
On to `Cc1cc(C2(C#N)CC2)ccc1-c1ccc(C(O)(c2cncnc2)C(C)(C)C)nc1` (stereo not drawn) [Compound 158], for which the pest or weed control at 50 ppm lay in the range of 80 to 100%.
As for `OC(c1cncnc1)(c1ccc(-c2ccc(OC(F)F)cc2)cn1)C1CC1` (stereo not drawn) [Compound 60], the pest or weed control at 50 ppm was in the range of 80 to 100%.
For `CC(C)(C)C(O)(c1cncnc1)c1ccc(-c2ccc(OC(F)(F)F)c(F)c2)cn1` (stereo not drawn) [Compound 106], the pest or weed control at 50 ppm was in the range of 80 to 100%.
Still for that read-out and setting: the result for `OC(Cc1ccc(Cl)cc1F)(c1cccnc1)c1ccc(-c2ccc(OC(F)(F)F)cc2)cn1` (stereo not drawn) [Compound 90] reads 80 to 100%.
`Cc1ncccc1C(O)(c1ccc(-c2ccc(OC(F)(F)F)cc2)cn1)C(C)(C)C` (stereo not drawn) [Compound 151]: the pest or weed control at 50 ppm was 80 to 100%.

Still in this experiment, the particulars now being: Zymoseptoria tritici, 72 h, standard laboratory isolate; high volume; 50 ppm; 3 Day Curative; wheat (Yuma); read-out: Disease Control, SI SEPTTR Type A Assay (50 ppm) 3 DC.
For `CC(C)C(O)(c1cncnc1)c1ccc(Oc2ccc(Cl)cn2)cn1` (stereo not drawn) [Compound 13], the pest or weed control at 50 ppm is 80 to 100%.
For `OC(c1cncnc1)(c1ccc(Oc2ccc(Cl)cn2)cn1)C1CC1` (stereo not drawn) [Compound 14], the pest or weed control at 50 ppm is 80 to 100%.
`OC(c1cncnc1)(c1ccc(-c2ccc(OC(F)F)cc2)cn1)C1CC1` (stereo not drawn) [Compound 60]: the pest or weed control at 50 ppm was in the range of 80 to 100%.

The next experiment shares this test system. Kind of experiment: Type B (low volume, EC formulation, track sprayer 200 L/ha) assay, leaf blotch of wheat, standard laboratory SEPTTR isolate (SI SEPTTR). The format is in vivo, Mycosphaerella graminicola on wheat plants (variety Yuma). The settings on record: Zymoseptoria tritici, 72 h; standard laboratory isolate; low volume EC; 100 g/ha; 3 Day Curative; wheat (Yuma); read-out: Disease Control, SI SEPTTR Type B Assay (100 g/ha) 3 DC. The procedure:
Example A: Evaluation of Fungicidal Activity: Leaf Blotch of Wheat (Mycosphaerella graminicola; Anamorph: Septoria tritici; Bayer Code SEPTTR)
For Type A assays, technical grades of the experimental fungicides in Table 4 below were dissolved in acetone, and then mixed with nine volumes of water containing 110 ppm Triton X-100. The fungicide solutions were applied onto wheat seedlings using an automated booth sprayer. For Type B assays, emulsifiable concentrate (EC) formulations of technical grades of the experimental fungicides in Table 4 below were prepared at 10% (w/v), and then mixed with 150 volumes of 0.1% Trycol 5941. These solutions were applied onto wheat seedlings using an automated track sprayer at 200 L/ha. All sprayed plants were allowed to air dry prior to further handling.
Wheat plants (variety Yuma) were grown from seed in a greenhouse in 50% mineral soil/50% soil-less Metro mix until the first leaf was fully emerged, with 7-10 seedlings per pot. Prior to or after application of experimental fungicides, plants were inoculated either with spores of a standard laboratory SEPTTR isolate (SI SEPTTR) or with spores from a SEPTTR field isolate collected from Wellsbourne, England in 2012 (FI SEPTTR). After inoculation the plants were kept for 3 days at 20° C. in 100% relative humidity (one day in a dark dew chamber followed by two days in a lighted dew chamber). Plants were then transferred to a 20° C. greenhouse for disease development. When disease symptoms were fully expressed on untreated plants, infection levels on treated plants were assessed on a scale of 0 to 100 percent disease severity. Percent disease control was calculated using the ratio of disease severity on treated plants relative to untreated plants.
Turning to `CC(C)C(O)(c1cncnc1)c1ccc(Oc2ccc(Cl)cn2)cn1` (stereo not drawn) [Compound 13], the pest or weed control at 100 g/ha was in the range of 60 to 79%.
Turning to `CC(C)(C)C(O)(c1cncnc1)c1ccc(-c2ccc(OCC(F)(F)F)cc2)cn1` (stereo not drawn) [Compound 120], the pest or weed control at 100 g/ha lay in the range of 80 to 100%.
Consider `OC(c1cccnc1)(c1ccc(-c2ccc(OC(F)(F)F)cc2)cn1)C1CC1` (stereo not drawn) [Compound 78], for which the pest or weed control at 100 g/ha fell in the range of 80 to 100%.
Regarding `CC(C)(C)C(O)(c1cncnc1)c1ccc(-c2ccccc2)cn1` (stereo not drawn) [Compound 114], the pest or weed control at 100 g/ha was in the range of 80 to 100%.
As for `OC(c1cncnc1)(c1ccc(Oc2ccc(Cl)cn2)cn1)C1CC1` (stereo not drawn) [Compound 14], the pest or weed control at 100 g/ha lay within 60 to 79%.
On to `Cc1cc(C2(C#N)CC2)ccc1-c1ccc(C(O)(c2cncnc2)C(C)(C)C)nc1` (stereo not drawn) [Compound 158], for which the pest or weed control at 100 g/ha was in the range of 80 to 100%.
For `OC(c1cncnc1)(c1ccc(-c2ccc(OC(F)F)cc2)cn1)C1CC1` (stereo not drawn) [Compound 60], the pest or weed control at 100 g/ha lay within 80 to 100%.
Regarding `CC(C)(C)C(O)(c1cncnc1)c1ccc(-c2ccc(OC(F)(F)F)c(F)c2)cn1` (stereo not drawn) [Compound 106], the pest or weed control at 100 g/ha was 80 to 100%.
Regarding `OC(Cc1ccc(Cl)cc1F)(c1cccnc1)c1ccc(-c2ccc(OC(F)(F)F)cc2)cn1` (stereo not drawn) [Compound 90], the pest or weed control at 100 g/ha lay in the range of 80 to 100%.
Regarding `Cc1ncccc1C(O)(c1ccc(-c2ccc(OC(F)(F)F)cc2)cn1)C(C)(C)C` (stereo not drawn) [Compound 151], the pest or weed control at 100 g/ha lay within 80 to 100%.

Still in this experiment, the particulars now being: Zymoseptoria tritici, 72 h; standard laboratory isolate; low volume EC; 100 g/ha; 3 Day Protectant; wheat (Yuma); read-out: Disease Control, SI SEPTTR Type B Assay (100 g/ha) 3 DP.
For the compound `CC(C)C(O)(c1cncnc1)c1ccc(Oc2ccc(Cl)cn2)cn1` (stereo not drawn) [Compound 13], the pest or weed control at 100 g/ha lay in the range of 80 to 100%.
The same measure, in the same setting: next, `CC(C)(C)C(O)(c1cncnc1)c1ccc(-c2ccc(OCC(F)(F)F)cc2)cn1` (stereo not drawn) [Compound 120]: 80 to 100%.
With `OC(c1cccnc1)(c1ccc(-c2ccc(OC(F)(F)F)cc2)cn1)C1CC1` (stereo not drawn) [Compound 78], the pest or weed control at 100 g/ha fell in the range of 80 to 100%.
As for `CC(C)(C)C(O)(c1cncnc1)c1ccc(-c2ccccc2)cn1` (stereo not drawn) [Compound 114], the pest or weed control at 100 g/ha was in the range of 80 to 100%.
On the same count and under the same terms, next, `OC(c1cncnc1)(c1ccc(Oc2ccc(Cl)cn2)cn1)C1CC1` (stereo not drawn) [Compound 14]: 60 to 79%; `Cc1cc(C2(C#N)CC2)ccc1-c1ccc(C(O)(c2cncnc2)C(C)(C)C)nc1` (stereo not drawn) [Compound 158]: 80 to 100%.
`OC(c1cncnc1)(c1ccc(-c2ccc(OC(F)F)cc2)cn1)C1CC1` (stereo not drawn) [Compound 60]: the pest or weed control at 100 g/ha was in the range of 80 to 100%.
Consider `CC(C)(C)C(O)(c1cncnc1)c1ccc(-c2ccc(OC(F)(F)F)c(F)c2)cn1` (stereo not drawn) [Compound 106], for which the pest or weed control at 100 g/ha lay in the range of 80 to 100%.
Still for that read-out and setting: next, `OC(Cc1ccc(Cl)cc1F)(c1cccnc1)c1ccc(-c2ccc(OC(F)(F)F)cc2)cn1` (stereo not drawn) [Compound 90]: 80 to 100%; `Cc1ncccc1C(O)(c1ccc(-c2ccc(OC(F)(F)F)cc2)cn1)C(C)(C)C` (stereo not drawn) [Compound 151]: 80 to 100%.

System in the next experiment: not listed separately
Nature of the experiment: Type B (low volume, EC formulation, track sprayer 200 L/ha) assay, leaf blotch of wheat, SEPTTR field isolate (FI SEPTTR). The format is in vivo, Mycosphaerella graminicola on wheat plants (variety Yuma). The settings on record: Zymoseptoria tritici, 72 h, field isolate; low volume EC; 100 g/ha; 3 Day Curative; wheat (Yuma); read-out: Disease Control, FI SEPTTR Type B Assay (100 g/ha) 3 DC. The procedure, abridged:
as §1
As to `CC(C)C(O)(c1cncnc1)c1ccc(Oc2ccc(Cl)cn2)cn1` (stereo not drawn) [Compound 13], the pest or weed control at 100 g/ha lay within 40 to 59%.
On to `CC(C)(C)C(O)(c1cncnc1)c1ccc(-c2ccc(OCC(F)(F)F)cc2)cn1` (stereo not drawn) [Compound 120], for which the pest or weed control at 100 g/ha is 80 to 100%.
Same read-out and setting: next, `OC(c1cccnc1)(c1ccc(-c2ccc(OC(F)(F)F)cc2)cn1)C1CC1` (stereo not drawn) [Compound 78]: 60 to 79%; `CC(C)(C)C(O)(c1cncnc1)c1ccc(-c2ccccc2)cn1` (stereo not drawn) [Compound 114]: 80 to 100%; `OC(c1cncnc1)(c1ccc(Oc2ccc(Cl)cn2)cn1)C1CC1` (stereo not drawn) [Compound 14]: 40 to 59%.
Turning to `Cc1cc(C2(C#N)CC2)ccc1-c1ccc(C(O)(c2cncnc2)C(C)(C)C)nc1` (stereo not drawn) [Compound 158], the pest or weed control at 100 g/ha lay within 80 to 100%.
`OC(c1cncnc1)(c1ccc(-c2ccc(OC(F)F)cc2)cn1)C1CC1` (stereo not drawn) [Compound 60]: the pest or weed control at 100 g/ha is less than 40%.
As for `CC(C)(C)C(O)(c1cncnc1)c1ccc(-c2ccc(OC(F)(F)F)c(F)c2)cn1` (stereo not drawn) [Compound 106], the pest or weed control at 100 g/ha was 80 to 100%.
For `OC(Cc1ccc(Cl)cc1F)(c1cccnc1)c1ccc(-c2ccc(OC(F)(F)F)cc2)cn1` (stereo not drawn) [Compound 90], the pest or weed control at 100 g/ha fell in the range of 80 to 100%.

The experiment is the same for the next values; noted with them: Zymoseptoria tritici, 72 h, field isolate; low volume EC; 100 g/ha; 3 Day Protectant; wheat (Yuma); read-out: Disease Control, FI SEPTTR Type B Assay (100 g/ha) 3 DP.
Regarding `CC(C)C(O)(c1cncnc1)c1ccc(Oc2ccc(Cl)cn2)cn1` (stereo not drawn) [Compound 13], the pest or weed control at 100 g/ha was 60 to 79%.
For the compound `CC(C)(C)C(O)(c1cncnc1)c1ccc(-c2ccc(OCC(F)(F)F)cc2)cn1` (stereo not drawn) [Compound 120], the pest or weed control at 100 g/ha lay within 60 to 79%.
Take `OC(c1cccnc1)(c1ccc(-c2ccc(OC(F)(F)F)cc2)cn1)C1CC1` (stereo not drawn) [Compound 78]: the pest or weed control at 100 g/ha was in the range of 60 to 79%.
As to `CC(C)(C)C(O)(c1cncnc1)c1ccc(-c2ccccc2)cn1` (stereo not drawn) [Compound 114], the pest or weed control at 100 g/ha lay within 60 to 79%.
With `OC(c1cncnc1)(c1ccc(Oc2ccc(Cl)cn2)cn1)C1CC1` (stereo not drawn) [Compound 14], the pest or weed control at 100 g/ha lay in the range of 60 to 79%.
On to `Cc1cc(C2(C#N)CC2)ccc1-c1ccc(C(O)(c2cncnc2)C(C)(C)C)nc1` (stereo not drawn) [Compound 158], for which the pest or weed control at 100 g/ha lay in the range of 80 to 100%.
Consider `OC(c1cncnc1)(c1ccc(-c2ccc(OC(F)F)cc2)cn1)C1CC1` (stereo not drawn) [Compound 60], for which the pest or weed control at 100 g/ha fell in the range of 60 to 79%.
For the compound `CC(C)(C)C(O)(c1cncnc1)c1ccc(-c2ccc(OC(F)(F)F)c(F)c2)cn1` (stereo not drawn) [Compound 106], the pest or weed control at 100 g/ha is 80 to 100%.
On to `OC(Cc1ccc(Cl)cc1F)(c1cccnc1)c1ccc(-c2ccc(OC(F)(F)F)cc2)cn1` (stereo not drawn) [Compound 90], for which the pest or weed control at 100 g/ha lay in the range of 80 to 100%.

(Values after patent US10167300B2, “Metalloenzyme inhibitor compounds as fungicides” (priority 2014, dated 2019).)
